Measurements as given in US9266883B2, “Ring-fused bicyclic pyridyl derivatives as FGFR4 inhibitors” (Novartis AG, priority 2013, dated 2016).
Counter-ions that a name gives are not always drawn. Like-named read-outs stand apart in the source and are kept apart here.

Columns and labels:
[1] = biological target: FGFR4 (GST-FGFR4(388-802)) (Homo sapiens (Human), UniProt P22455); assay: In-vitro biochemical kinase assay for FGFR4 (Caliper microfluidic mobility shift)
Tel-FGFR4 = Tel-FGFR4 (Homo sapiens (Human), UniProt P22455); assay: In vitro cellular kinase assay for FGFR4 (BaF3-Tel-FGFR4 cells, MSD capture ELISA of tyrosine phosphorylation); format: cell-based
Chain of Tel-FGFR4 (P22455 other isoform, or with tags, fused parts or gaps): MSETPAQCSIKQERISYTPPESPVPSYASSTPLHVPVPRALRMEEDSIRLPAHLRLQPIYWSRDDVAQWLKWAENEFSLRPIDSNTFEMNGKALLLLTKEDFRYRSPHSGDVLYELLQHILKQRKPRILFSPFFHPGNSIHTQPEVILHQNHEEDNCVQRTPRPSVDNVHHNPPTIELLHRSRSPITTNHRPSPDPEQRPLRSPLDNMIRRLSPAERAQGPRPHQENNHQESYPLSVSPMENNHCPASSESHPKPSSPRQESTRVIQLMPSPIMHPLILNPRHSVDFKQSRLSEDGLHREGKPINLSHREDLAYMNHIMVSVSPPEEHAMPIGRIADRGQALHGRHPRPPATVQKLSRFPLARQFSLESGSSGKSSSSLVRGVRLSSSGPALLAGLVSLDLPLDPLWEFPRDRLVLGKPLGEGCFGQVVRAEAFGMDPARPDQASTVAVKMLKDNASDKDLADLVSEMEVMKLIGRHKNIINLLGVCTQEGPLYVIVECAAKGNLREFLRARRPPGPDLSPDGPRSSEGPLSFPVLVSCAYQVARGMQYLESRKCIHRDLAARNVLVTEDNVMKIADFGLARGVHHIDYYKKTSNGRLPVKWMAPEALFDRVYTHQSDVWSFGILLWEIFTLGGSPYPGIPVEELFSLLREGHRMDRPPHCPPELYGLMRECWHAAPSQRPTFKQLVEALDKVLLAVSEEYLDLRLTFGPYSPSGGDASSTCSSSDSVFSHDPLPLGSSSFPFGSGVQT

[2] = biochemical FGFR4 assay, read-out: Biochemical IC50
[3] = Cellular BaF3 FGFR4 assay, read-out: Cellular IC50
[4] = read-out: Biochemical FGFR4 IC50
[5] = BaF3-Tel-FGFR4 cells, 1 hour incubation, read-out: Cellular BaF3 FGFR4 IC50
[6] = measured and considered as outlier values, not included in the table or list, read-out: IC50 in the cellular BaF3 FGFR4 assay, outlier values

Chain of FGFR4 (GST-FGFR4(388-802)) (P22455 388-802): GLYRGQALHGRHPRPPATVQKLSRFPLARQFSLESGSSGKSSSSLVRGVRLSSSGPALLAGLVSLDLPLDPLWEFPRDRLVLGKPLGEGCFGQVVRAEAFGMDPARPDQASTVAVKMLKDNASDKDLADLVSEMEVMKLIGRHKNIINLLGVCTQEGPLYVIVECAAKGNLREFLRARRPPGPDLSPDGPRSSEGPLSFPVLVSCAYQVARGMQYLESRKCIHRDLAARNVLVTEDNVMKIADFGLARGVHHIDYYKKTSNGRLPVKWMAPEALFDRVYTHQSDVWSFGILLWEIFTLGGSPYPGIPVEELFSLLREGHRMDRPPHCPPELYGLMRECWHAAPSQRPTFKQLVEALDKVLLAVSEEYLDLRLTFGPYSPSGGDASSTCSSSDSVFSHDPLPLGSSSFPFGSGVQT

IC50 [1, 2] [nM] | IC50 (Tel-FGFR4; [3]) [nM] | Compound | IC50 [1, 4] [nM] | IC50 (Tel-FGFR4; [5]) [nM] | IC50 (Tel-FGFR4; [6]) [nM]
0.1 | 5.9 | COCCNc1cc(NC(=O)N2CCCc3cc(CN4CCNC(C)(C)C4=O)c(C=O)nc32)ncc1C#N [N-(5-cyano-4-((2-methoxyethyl)amino)pyridin-2-yl)-6-((3,3-dimethyl-2-oxopiperazin-1-yl)methyl)-7-formyl-3,4-dihydro-1,8-naphthyridine-1(2H)-carboxamide] | – | – | –
0.6 | 4.8 | COC[C@@H](C)Nc1cc(NC(=O)N2CCCc3cc(CN4CCCC4=O)c(C=O)nc32)ncc1C#N [(R)-N-(5-cyano-4-((1-methoxypropan-2-yl)amino)pyridin-2-yl)-7-formyl-6-((2-oxopyrrolidin-1-yl)methyl)-3,4-dihydro-1,8-naphthyridine-1(2H)-carboxamide] | – | – | –
57 | 223 | N#Cc1cnc(NC(=O)N2CCCc3cc(C(F)F)c(C=O)nc32)cc1Cl [N-(4-chloro-5-cyanopyridin-2-yl)-6-(difluoromethyl)-7-formyl-3,4-dihydro-1,8-naphthyridine-1(2H)-carboxamide] | – | – | –
0.5 | 8.1 | CC(=O)N(C)Cc1cc2c(nc1C=O)N(C(=O)Nc1cc(NCCO)c(C#N)cn1)CCC2 [N-(5-cyano-4-((2-hydroxyethyl)amino)pyridin-2-yl)-7-formyl-6-((N-methylacetamido)methyl)-3,4-dihydro-1,8-naphthyridine-1(2H)-carboxamide] | – | – | –
– | – | CCCCC(O)c1ccc(NC(=O)N2CCCc3ccc(C=O)nc32)nc1 (racemic) [Example 22, 7-formyl-N-(5-(1-hydroxypentyl)pyridin-2-yl)-3,4-dihydro-1,8-naphthyridine-1(2H)-carboxamide] | 230 | 2610 | –
1.3 | 7.1 | COCCNc1cc(NC(=O)N2CCCc3cc(CN4CCN(C)C(=O)C4)c(C=O)nc32)ncc1C#N [N-(5-cyano-4-((2-methoxyethyl)amino)pyridin-2-yl)-7-formyl-6-((4-methyl-3-oxopiperazin-1-yl)methyl)-3,4-dihydro-1,8-naphthyridine-1(2H)-carboxamide] | – | – | –
2.3 | 11.5 | COCCNc1cc(NC(=O)N2CCCc3cc(CN(C)C(C)=O)c(C=O)nc32)ncc1C(F)(F)F [7-formyl-N-(4-((2-methoxyethyl)amino)-5-(trifluoromethyl)pyridin-2-yl)-6-((N-methylacetamido)methyl)-3,4-dihydro-1,8-naphthyridine-1(2H)-carboxamide] | – | – | –
46.5 | 138 | COc1cc(NC(=O)N2CCCc3cc(CN4CCCC4=O)c(C=O)nc32)ncc1C(F)(F)F [7-formyl-N-(4-methoxy-5-(trifluoromethyl)pyridin-2-yl)-6-((2-oxopyrrolidin-1-yl)methyl)-3,4-dihydro-1,8-naphthyridine-1(2H)-carboxamide] | – | – | –
0.5 | 63 | COCCNc1cc(NC(=O)N2CCCc3cc(CN4CCC(N(C)C)C4)c(C=O)nc32)ncc1C#N (stereo not shown) [N-(5-cyano-4-((2-methoxyethyl)amino)pyridin-2-yl)-6-((3-(dimethylamino)pyrrolidin-1-yl)methyl)-7-formyl-3,4-dihydro-1,8-naphthyridine-1(2H)-carboxamide] | – | – | –
– | – | N#Cc1cnc(NC(=O)N2CCCc3cc(CO)c(C=O)nc32)cc1OCC(O)CCCl (racemic) [Example 60, N-(4-(4-chloro-2-hydroxybutoxy)-5-cyanopyridin-2-yl)-7-formyl-6-(hydroxymethyl)-3,4-dihydro-1,8-naphthyridine-1(2H)-carboxamide] | 0.8 | 26 | –
4 | 12.1 | COC[C@H](C)Oc1cc(NC(=O)N2CCCc3cc(CN(C)C(C)=O)c(C=O)nc32)ncc1C#N [(S)-N-(5-cyano-4-((1-methoxypropan-2-yl)oxy)pyridin-2-yl)-7-formyl-6-((N-methylacetamido)methyl)-3,4-dihydro-1,8-naphthyridine-1(2H)-carboxamide] | – | – | –
– | – | N#Cc1cnc(NC(=O)N2CCCc3cc(CO)c(C=O)nc32)cc1OC1CCOCC1 [Example 53, N-(5-cyano-4-((tetrahydro-2H-pyran-4-yl)oxy)pyridin-2-yl)-7-formyl-6-(hydroxymethyl)-3,4-dihydro-1,8-naphthyridine-1(2H)-carboxamide] | 2.9 | 36 | –
0.2 | 6.1 | COCCNc1cc(NC(=O)N2CCCc3cc(CN4C[C@H](N(C)C)CC4=O)c(C=O)nc32)ncc1C#N [(R)-N-(5-cyano-4-((2-methoxyethyl)amino)pyridin-2-yl)-6-((4-(dimethylamino)-2-oxopyrrolidin-1-yl)methyl)-7-formyl-3,4-dihydro-1,8-naphthyridine-1(2H)-carboxamide] | – | – | –
1.6 | 23.5 | CC(C)Oc1cc(NC(=O)N2CCCc3cc(CN4CCNC(=O)C4)c(C=O)nc32)ncc1C#N [N-(5-cyano-4-isopropoxypyridin-2-yl)-7-formyl-6-((3-oxopiperazin-1-yl)methyl)-3,4-dihydro-1,8-naphthyridine-1(2H)-carboxamide] | – | – | –
0.5 | 3.7 | COC[C@@H](C)Oc1cc(NC(=O)N2CCCc3cc(CN(C)C(C)=O)c(C=O)nc32)ncc1C#N [(R)-N-(5-cyano-4-((1-methoxypropan-2-yl)oxy)pyridin-2-yl)-7-formyl-6-((N-methylacetamido)methyl)-3,4-dihydro-1,8-naphthyridine-1(2H)-carboxamide] | – | – | 174
8.9 | 22.5 | CCc1cc(NC(=O)N2CCCc3cc(CN4CCN(C)CC4=O)c(C=O)nc32)ncc1C#N [N-(5-cyano-4-ethylpyridin-2-yl)-7-formyl-6-((4-methyl-2-oxopiperazin-1-yl)methyl)-3,4-dihydro-1,8-naphthyridine-1(2H)-carboxamide] | – | – | –
1.6 | 9.8 | CCN1CCN(Cc2cc3c(nc2C=O)N(C(=O)Nc2cc(NCCOC)c(C#N)cn2)CCC3)C(=O)C1 [N-(5-cyano-4-((2-methoxyethyl)amino)pyridin-2-yl)-6-((4-ethyl-2-oxopiperazin-1-yl)methyl)-7-formyl-3,4-dihydro-1,8-naphthyridine-1(2H)-carboxamide] | – | – | –
1.2 | 21 | CC(C)Oc1cc(NC(=O)N2CCCc3cc(C(F)F)c(C=O)nc32)ncc1C#N [N-(5-cyano-4-isopropoxypyridin-2-yl)-6-(difluoromethyl)-7-formyl-3,4-dihydro-1,8-naphthyridine-1(2H)-carboxamide] | – | – | –
– | – | N#Cc1cnc(NC(=O)N2CCCc3ccc(C=O)nc32)cc1C#N [Example 17, N-(4,5-dicyanopyridin-2-yl)-7-formyl-3,4-dihydro-1,8-naphthyridine-1(2H)-carboxamide] | 40 | 914 | –
0.8 | 10.4 | CCN(Cc1cc2c(nc1C=O)N(C(=O)Nc1cc(NC(C)C)c(C#N)cn1)CCC2)C(=O)CN(C)C [N-(5-cyano-4-(isopropylamino)pyridin-2-yl)-6-((2-(dimethylamino)-N-ethylacetamido)methyl)-7-formyl-3,4-dihydro-1,8-naphthyridine-1(2H)-carboxamide] | – | – | –
1.7 | 17 | CC(C)Oc1cc(NC(=O)N2CCCc3cc(CN4CCN(C)C(=O)C4)c(C=O)nc32)ncc1C#N [N-(5-cyano-4-isopropoxypyridin-2-yl)-7-formyl-6-((4-methyl-3-oxopiperazin-1-yl)methyl)-3,4-dihydro-1,8-naphthyridine-1(2H)-carboxamide] | – | – | –
1.4 | 11 | COCCNc1cc(NC(=O)N2CCCc3cc(CN4C(=O)CN(C)CC4(C)C)c(C=O)nc32)ncc1C#N [N-(5-cyano-4-((2-methoxyethyl)amino)pyridin-2-yl)-7-formyl-6-((2,2,4-trimethyl-6-oxopiperazin-1-yl)methyl)-3,4-dihydro-1,8-naphthyridine-1(2H)-carboxamide] | – | – | –
3 | 55.5 | CC(C)Oc1cc(NC(=O)N2CCCc3cc(CN4CCN(C)CC4)c(C=O)nc32)ncc1C#N [N-(5-cyano-4-isopropoxypyridin-2-yl)-7-formyl-6-((4-methylpiperazin-1-yl)methyl)-3,4-dihydro-1,8-naphthyridine-1(2H)-carboxamide] | – | – | –
1.3 | 6.9 | CCOc1cc(NC(=O)N2CCCc3cc(CN4CCN(C)CC4=O)c(C=O)nc32)ncc1C#N [N-(5-cyano-4-ethoxypyridin-2-yl)-7-formyl-6-((4-methyl-2-oxopiperazin-1-yl)methyl)-3,4-dihydro-1,8-naphthyridine-1(2H)-carboxamide] | – | – | –
9.5 | 21 | COCCNc1cc(NC(=O)N2CCCc3cc(-c4sc(C)nc4C)c(C=O)nc32)ncc1C#N [N-(5-cyano-4-((2-methoxyethyl)amino)pyridin-2-yl)-6-(2,4-dimethylthiazol-5-yl)-7-formyl-3,4-dihydro-1,8-naphthyridine-1(2H)-carboxamide] | – | – | –
2.4 | 7.1 | CN1CCN(Cc2cc3c(nc2C=O)N(C(=O)Nc2cc(OCCF)c(C#N)cn2)CCC3)C(=O)C1 [N-(5-cyano-4-(2-fluoroethoxyl)pyridin-2-yl)-7-formyl-6-((4-methyl-2-oxopiperazin-1-yl)methyl)-3,4-dihydro-1,8-naphthyridine-1(2H)-carboxamide] | – | – | –
– | – | CN1CCN(Cc2cc3c(nc2C=O)N(C(=O)Nc2cc(NCCOS(=O)(=O)O)c(C#N)cn2)CCC3)C(=O)C1 [Example 236, 2-((5-cyano-2-(7-formyl-6-((4-methyl-2-oxopiperazin-1-yl)methyl)-1,2,3,4-tetrahydro-1,8-naphthyridine-1-carboxamido)pyridin-4-yl)amino)ethyl hydrogen sulfate] | 8.2 | 1130 | > 3000
– | – | COC[C@H](C)Oc1nc(NC(=O)N2CCCc3cc(CO)c(C=O)nc32)ncc1Cl [Example 58, (S)-N-(5-chloro-4-((1-methoxypropan-2-yl)oxy)pyrimidin-2-yl)-7-formyl-6-(hydroxymethyl)-3,4-dihydro-1,8-naphthyridine-1(2H)-carboxamide] | 160 | 898 | –
